From patent US20210161894A1, “Compositions and Methods for Modulating Liver Endothelial Cell Fenestrations” (priority 2017, published 2021)
Entries after “also recorded” stand apart in the source; their conditions may differ.

What was measured:
[1] = tested on: lipid rafts and fenestrations of LSECs; assay: 3D-SIM study of lipid rafts and fenestrations; format: cell-based
Source text: Sieve plates containing fenestrations are intercalated between thickened areas of membrane (lipid rafts).

[2] = tested on: isolated LSECs (liver sinusoidal endothelial cells); assay: SEM of fenestrations in isolated LSECs from young and old mice after 30 min drug treatment (second Example 7); format: cell-based; conditions: for Diameter / Frequency / Porosity: 30 min; for effect on porosity and fenestration frequency (summary in words): young and old LSECs
Protocol: 3-4 and 18-24 month old male C57/B16 mice were obtained from the Animal Resource Centre in Perth, Western Australia. Animals were housed at the ANZAC Research Institute animal house on a 12 hour light/dark cycle and provided with ad libitum access to food and water. Mice were not fasted prior to euthanasia by a single intraperitoneal injection with 100 mg/kg ketamine and 10 mg/kg xylazine in saline. The study was approved by the Animal Welfare Committee of the Sydney Local Health District and was performed in accordance with the Australian Code of Practice for the care and use of animals for scientific research (AWC 2016/009). All information provided accords with the ARRIVE guidelines.
As described previously (Cogger et al. J e52698, 2015 https://dx.doi.org/10.3791/52698), mouse LSEC isolation was performed by perfusion of the liver with collagenase. Non-parenchymal cells were removed by a two-step Percoll gradient and Kupffer cells were removed by selective adherence to plastic. LSECs (seeded at 0.5×10^6 cells/cm2) were cultured (37° C., 5% CO2) in serum free RPMI-1640 for 3.5 hours before use.
Cells were treated with various agents for 30 minutes to determine effects on fenestrations. All agents were dissolved in serum-free RPMI media. All experiments were performed in triplicate for both young and old mice. Actin was disrupted with 0.5 μg/ml cytochalasin D and lipid rafts were disrupted with 3.6 and 1.8 μg/ml 7-keocholesterol; dosages were selected. […] The serotonergic/phospholipase C pathway was promoted with DOI (0.1 μg/ml) and endothelin receptors were inhibited by bosentan (550, 55 and 5.5 ng/ml) Death receptor 4 was promoted with TRAIL (100, 10. 1, 0.1 and 0.01 ng/ml) and NAD+ was promoted with NMN (5000, 50, 10, 1 and 0.1 μg/ml).
SEM was performed as previous described (Corbin et al J Biol Chem 274: 13729-13732, 1999.). LSECs were fixed in 2.5% glutaraldehyde in 0.1M sodium cacodylate buffer, osmicated, dehydrated in graded ethanol and hexamethyl disilazane, mounted on stubs, sputter coated with platinum and examined using a JEOL 6380 Scanning Electron Microscope (JEOL Ltd, Japan). Images at 10,000× magnification were collected by a blinded observer and used to measure fenestration diameter and LSEC porosity using Image J (NIH, MD, USA). […] Fenestrations less than 30 nm and gaps more than 300 nm were excluded from analysis. Porosity was defined as the percentage of the cell membrane covered with fenestrations. Frequency was defined at the number of fenestrations per […].
Individual specifications of analyses are described in figures legends. All data are presented as mean±SD. Experimental design and analysis were performed in accordance with the APS guidelines described in Curran-Everett and Benos DJ. Adv Physiol Educ 31: 295-298, 2007.

LSEC fenestrations = assay: SEM of LSEC fenestrations after drug treatments (Example 2, FIGS. 1-6); format: cell-based, mice; conditions: for change in fenestration diameter: Bosentan 0.1 μM, Sildenafil 300 ng/ml, TRAIL 1 μg/ml; for sieve plates and fenestration density on SEM images: young and old mice
Source text: Young and old C57B16 mice (n=3 young mice, age 3-4 and n=3 old mice, 20-24 months) were maintained under full SPF conditions and with ad libitum feeding. The study had the approval of the Sydney South West Area Health Service Animal Welfare Committee. Mice at 20-24 months are senescent. Animals were sacrificed withCO2 and livers immediately perfusion-fixed via a 23G needle inserted into the portal vein. Liver tissue was fixed with1% glutaraldehyde/4% para-formaldehyde in PBS (0.1M sucrose).
Drug treatments and dosages (shown superimposed on their corresponding image in FIGS. 1, and 2) were performed by incubating liver cells at 37° C., 5% CO2 for 30 mins using RPMI with or without dissolved drug. All images were taken by two blinded researchers using a SEM at 10,000×, scale bars of 1 μm are shown.
Each data point represents the average±SD of 8 images (as shown in FIGS. 1 and 2), 616-3312 fenestration raw data points were collected per treatment.

[3] = tested on: actin cytoskeleton of LSECs; assay: dSTORM imaging of the actin cytoskeleton; format: cell-based; conditions: young mice
Protocol: dSTORM imaging was performed using an in-house microscope. LSECs were prepared for dSTORM by washing twice with PBS and fixation with 4% paraformaldehyde for 30 mins. Then LSECs were washed twice with PBS, permeabilised with Triton-X for 90 secs, blocked with 5% bovine serum albumin for 1 hour, and stained with Alexa Flour phalloidin 488 (1:40) for 20 min prior to imaging. Cells were washed using PBS with 0.1% Tween and placed in OxEA buffer (30) for dSTORM visualisation and image capture. The dSTORM used 488 and 647 nm excitation from diode-pumped lasers (Coherent Inc, CA, USA). Excitation was delivered via a 1.49NA 60× oil-immersion TIRF objective (Olympus Australia, AUS). Fluorescence was captured on two separate sCMOS cameras (Imaging Development Systems GmbH, Germany). Data was collected for up to 40,000 images at around 75 fps. 5-8 whole cell images were collected by a blinded observer for each treatment dosage and processed using rapidSTORM open source software (Wolter et al. Nat Methods 9: 1040, 2012.). Each image was examined for all sieve plates and actin structures. Densitometry measurements were performed using 5-8 dSTORM images with data analysis performed using Image J software (NIH, MD, USA).

Intracellular cGMP = assay: Cyclic GMP ELISA; format: cell-based, mice; conditions: p=0.001
Protocol: Assays for MTT and cGMP were performed as instructed by the kit. Briefly, MTT assays were performed following drug treatments. Cells were washed with PBS and incubated with RPMI media containing […] MTT solution. Cells were incubated at 37° C. for 4 hrs and lysed with […] solubilisation solution, 30 mins colour development followed and measured at 570 nm using a spectrophotometer. cGMP assays were also performed after drug treatments. Cells were washed with PBS and lysed with 0.1M HCl. Following sample collection the sample was acetylated and prepared with kit reagents. Samples were incubated for 18 hrs at 4° C. before examination at 410 nm with a spectrophotometer.

Triton X-100
effect on fenestrations and lipid rafts [1]: decreased fenestrations and increased rafts

COc1ccccc1Oc1c(NS(=O)(=O)c2ccc(C(C)(C)C)cc2)nc(-c2ncccn2)nc1OCCO [Bosentan, bosentan]
Diameter ([2]; old mice, 5.5 ng/ml): 131.03 ± 16.29 nm
Frequency ([2]; old mice, 5.5 ng/ml): 3.14 ± 0.35 no/area
Porosity ([2]; old mice, 5.5 ng/ml): 4.53 ± 0.59 %
Diameter ([2]; old mice, 55 ng/ml): 121.14 ± 23.80 nm
Frequency ([2]; old mice, 55 ng/ml): 2.31 ± 1.03 no/area
Porosity ([2]; old mice, 55 ng/ml): 3.21 ± 0.36%
Diameter ([2]; old mice, 550 ng/ml): 118.64 ± 4.36 nm
Frequency ([2]; old mice, 550 ng/ml): 1.46 ± 0.54 no/area
Porosity ([2]; old mice, 550 ng/ml): 1.86 ± 0.72%
effect on porosity and fenestration frequency (summary in words) [2]: LSECs from old mice only were responsive
Diameter ([2]; young mice, 5.5 ng/ml): 129.55 ± 5.46 nm
Frequency ([2]; young mice, 5.5 ng/ml): 3.66 ± 0.30 no/area
Porosity ([2]; young mice, 5.5 ng/ml): 5.18 ± 0.45%
Diameter ([2]; young mice, 55 ng/ml): 132.12 ± 9.03 nm
Frequency ([2]; young mice, 55 ng/ml): 3.20 ± 1.23 no/area
Porosity ([2]; young mice, 55 ng/ml): 4.48 ± 1.12%
Diameter ([2]; young mice, 550 ng/ml): 133.73 ± 9.03 nm
Frequency ([2]; young mice, 550 ng/ml): 2.30 ± 0.04 no/area
Porosity ([2]; young mice, 550 ng/ml): 3.66 ± 0.41%
fenestration porosity (LSEC fenestrations; old mice, 0.1 μM): 4.2±0.4%
change in fenestration diameter (LSEC fenestrations; old mice, 7KC 4.5 μM): No changes
sieve plates and fenestration density on SEM images (LSEC fenestrations): maintained sieve plates and increased fenestration density
fenestration porosity (LSEC fenestrations; young mice, 0.1 μM): 5.4±0.1%
change in fenestration diameter (LSEC fenestrations; young mice): No changes
actin changes with drug treatments (dSTORM) [3]: Stress fibres; also recorded: Fused actin structure; also recorded: Individual fenestrations

CCOC(=O)C1=C(COCCN)NC(C)=C(C(=O)OC)C1c1ccccc1Cl (stereo not shown) [Amlodipine, amlodipine]
Diameter ([2]; old mice, 5 ng/ml): 119.67 ± 22.63 nm
Frequency ([2]; old mice, 5 ng/ml): 3.56 ± 1.07 no/area
Porosity ([2]; old mice, 5 ng/ml): 4.44 ± 0.29 %
Change in Frequency, Old ([2]; old mice, 20 ng/ml): ↑ (ns)
Change in Porosity, Old ([2]; old mice, 20 ng/ml): ↑ (ns)
Diameter ([2]; old mice, 20 ng/ml): 125.00 ± 13.36 nm
Frequency ([2]; old mice, 20 ng/ml): 3.00 ± 0.66 no/area
Porosity ([2]; old mice, 20 ng/ml): 3.98 ± 0.48 %
Diameter ([2]; young mice, 5 ng/ml): 125.87 ± 9.30 nm
Frequency ([2]; young mice, 5 ng/ml): 3.47 ± 1.00 no/area
Porosity ([2]; young mice, 5 ng/ml): 4.73 ± 0.80%
Diameter ([2]; young mice, 20 ng/ml): 123.66 ± 1.18 nm
Frequency ([2]; young mice, 20 ng/ml): 4.67 ± 0.65 no/area
Porosity ([2]; young mice, 20 ng/ml): 6.44 ± 1.14 %
fenestration diameter (LSEC fenestrations; young mice, 20 ng/ml): 123.8±1.6 nm

CCCc1nn(C)c2c(=O)[nH]c(-c3cc(S(=O)(=O)N4CCN(C)CC4)ccc3OCC)nc12 [Sildenafil, sildenafil]
Diameter ([2]; old mice, 0.3 μg/ml): 138.91 ± 13.05 nm
Frequency ([2]; old mice, 0.3 μg/ml): 3.41 ± 0.68 no/area
Porosity ([2]; old mice, 0.3 μg/ml): 5.49 ± 1.33 %
Diameter ([2]; old mice, 0.6 μg/ml): 143.69 ± 10.80 nm
Frequency ([2]; old mice, 0.6 μg/ml): 2.88 ± 01.16 no/area
Porosity ([2]; old mice, 0.6 μg/ml): 4.97 ± 1.34 %
effect on porosity and fenestration frequency (summary in words) [2]: significant increases in porosity and fenestration frequency in both young and old LSECs
dose response on fenestration porosity (words) ([2]; young mice): limited dosage range for positive effects on fenestration porosity
Diameter ([2]; young mice, 0.3 μg/ml): 126.34 ± 16.36 nm
Frequency ([2]; young mice, 0.3 μg/ml): 4.54 ± 0.34 no/area
Porosity ([2]; young mice, 0.3 μg/ml): 6.34 ± 2.09 %
Diameter ([2]; young mice, 0.6 μg/ml): 130.33 ± 16.02 nm
Frequency ([2]; young mice, 0.6 μg/ml): 3.56 ± 0.61 no/area
Porosity ([2]; young mice, 0.6 μg/ml): 4.92 ± 0.35%
dose response on fenestration porosity (words) ([2]; young mice, listed as sildenafil): did not promote greater changes in fenestration porosity or frequency
fenestration numbers, fenestrated cell area and sieve plate formation ([2]; young mice, sildenafil 0.3 μg/ml, amlodipine 20 ng/ml, TRAIL 1 ng/ml): increased fenestration numbers and overall fenestrated cell area with some disruption to sieve plate formation
fenestration porosity (LSEC fenestrations; old mice, 300 ng/ml): 5.4±1.9%
change in fenestration diameter (LSEC fenestrations; old mice, 7KC 4.5 μM): No changes
sieve plates and fenestration density on SEM images (LSEC fenestrations): maintained sieve plates and increased fenestration density
fenestration porosity (LSEC fenestrations; young mice, 300 ng/ml): 7.1±2.2%
change in fenestration diameter (LSEC fenestrations; young mice): No changes
actin changes with drug treatments (dSTORM) [3]: disordered, dense actin staining in the plasma membrane and clustering of actin within the cytoplasm; also recorded: Disordered actin structure; also recorded: Gap formations; also recorded: Individual fenestrations
actin changes with drug treatments (dSTORM) ([3]; listed as sildenafil): loss of smooth fibres encircling the cytoplasm
increase of intracellular cGMP (Intracellular cGMP): 3 fold

CCC(C)(C)C(=O)O[C@H]1C[C@@H](C)C=C2C=C[C@H](C)[C@H](CC[C@@H]3C[C@@H](O)CC(=O)O3)[C@H]21 [Simvastatin, simvastatin]
Change in Diameter, Old ([2]; old mice, 0.1 μg/ml): ↑ (ns)
Diameter ([2]; old mice, 0.1 μg/ml): 147.47 ± 6.47 nm
Frequency ([2]; old mice, 0.1 μg/ml): 1.89 ± 0.74 no/area
Change in Diameter, Old ([2]; old mice, 1 μg/ml): ↑ (ns)
Diameter ([2]; old mice, 1 μg/ml): 145.96 ± 6.55 nm
Frequency ([2]; old mice, 1 μg/ml): 1.88 ± 0.86 no/area
Diameter ([2]; young mice, 0.1 μg/ml): 144.35 ± 18.95 nm
Frequency ([2]; young mice, 0.1 μg/ml): 2.42 ± 0.55 no/area
Porosity ([2]; young mice, 0.1 μg/ml): 4.05 ± 0.41%
Diameter ([2]; young mice, 1 μg/ml): 126.55 ± 9.64 nm
Frequency ([2]; young mice, 1 μg/ml): 2.83 ± 0.51 no/area
Porosity ([2]; young mice, 1 μg/ml): 3.99 ± 0.55%
fenestration diameter (LSEC fenestrations; old mice, both Simvastatin treatments): 152.0±19.2 nm

VEGF
effect on fenestrations and lipid rafts [1]: depleted lipid rafts and increased fenestrations
